What was measured:
GSK-3β = test: Astrocyte GSK-3β western blot; type: cell-based, mouse; conditions: astrocytes from 6-month-old male mice, 5 μM, 3 days, cell lysate
Method: FIGS. 4A-4D: 5c(i) induces Synapsin I production and reduces C3 and GSK-3s expression from astrocytes promoting neuron survival and neurite growth. Primary adult cortical astrocytes from 6-month-old male mice were incubated with 5 μM 5c(i) for 3 days. Graph represents mean±SEM of percent change in fluorescent intensity (Synapsin I and C3) or chemiluminescence (GSK-3β) relative to Vehicle (4A and 4D). Images represent the 4B) Vehicle and 4C) 5 μM 5c(i) treated groups stained with Synapsin I and DAPI. D) Cortical astrocytes from 6-month-old male mice were plated and treated with 5c(i) or Vehicle for 2 days. Cells were then washed and cortical neurons from 6-month-old male mice were added on top of the astrocytes. […] Scale bar=50 μm.
To determine if 5c(i) can modulate astrocytes, adult astrocytes from 6-month-old male mice were treated with 5c(i) for 3 days and stained with Synapsin I and C3 to measure changes in fluorescent intensity or western blot was conducted on the cell lysate to assess changes in GSK-3β expression (FIG. 4). […] To determine if 5c(i) treated astrocytes can directly benefit neuronal recovery, astrocytes were cultured with 5c(i) for 2 days before removing 5c(i) from the culture and plating adult neurons on top of the astrocytes for 2DIV, resulting in increased neuron survival and neurite growth. […]

[1] = tested on: cells lacking TrkB/TrkC receptors; test: Binding and activity in Trk negative cells (HEK293 and NIH/3T3); conditions: non-transfected HEK293 and NIH/3T3
Method: FIG. 2: 5c(i) binds to TrkB and TrkC receptors. Transfected cell lines that are Trk positive cells (TrkB-HEK293 and TrkC-NIH/3T3) and non-transfected cell lines that are Trk negative cells (HEK293 and NIH/3T3) were seeded approximately 2,000 cells/well in a 96-well plate and incubated for 24 hours. The cells were treated with a serial dilution of compound (0, 10, 25, 50, 100, 200, 500, and 1000 nM) in serum-free media (SFM) with and without A) 0.6 nM of BDNF (TrkB-HEK293 and HEK293) and B) 0.2 nM of NT-3 (TrkC-NIH/3T3 and NIH/3T3) for 2.5 h. After that, the cells were washed with PBS once to remove unbound compounds and dissolved in 1% (w/v) aqueous sodium dodecyl sulfate. Cell-associated fluorescence was then determined by measuring the emission of the resulting solution upon λex (540/25 nm) and λem (620/40 nm) using Agilent BioTek Synergy H4 Hybrid Microplate Reader. Kd was calculated by GraphPad Prism 9 using Binding saturation (One site—Specific binding).
Transfected cell lines that are Trk positive cells (TrkA-HeLa, TrkB-HEK293, and TrkC-NIH/3T3) and non-transfected cell lines that are Trk negative cells (HeLa, HEK293, and NIH/3T3) were seeded at 2,000 cells/well in a 96-well plate (0.32 cm^2 growth area) and incubated inside a 5% CO2 incubator at 37° C. for 24 hours. […] The dissociation constant (Kd) was calculated using binding saturation (One site—Specific binding).

[2] = tested on: severe T8 contusion/compression SCI; test: Preclinical SCI model: Novel Object Recognition (NOR); type: in vivo, mouse; conditions: 7 weeks post injury, 24-hr interval
Method: 8-week-old male mice with a severe T8 contusion/compression SCI were injected IP daily with 5c(i) for 7 weeks (5 and 25 mg/kg/day). 7 weeks post injury, NOR was conducted. 10A) The total number of independent visits to novel object. 10B) Latency to visit novel object. 10C) The ratio of time spent with objects (novel/familiar ratio). […] N=6-8. Graphs show mean and SEM. # (p<0.1) * (p<0.05) ** (p<0.01) *** (p<0.001) **** (p<0.0001). Student's T-test.
Male mice at 8 weeks of age underwent surgery to sustain an SCI. The spinalis thoracis muscle was lacerated to perform a laminectomy at T7-T9 to expose the spinal cord while keeping the dura intact. The mice were then clamped using 2 pairs of Adson forceps before using the Infinite Horizon Impactor at 50 kdyn of force (the contusion) with a 2 second dwell time (the compression) to induce a severe T8 contusion and compression. Self-degrading Catgut sutures were utilized for the closure of the spinalis thoracis muscle before the skin was glued shut with 3M VETBOND™ (n-butyl cyanoacrylate adhesive veterinary tissue adhesive) Tissue Adhesive. All procedures and instruments used for surgery were sterilized prior to surgery to prevent infections. After surgery, mice recovered in a warmed cage and then moved to a cage set at room temperature provided with food and water ad libitum. All surgeries were performed in the morning (8 am-12 pm) to limit potential circadian clock impact. Behavioral assays were performed at the same time in the morning for all the cohorts for the same reason. For the administration of pharmaceutical agents, the vehicle was 0.6 mL/kg of 100% dimethyl sulfoxide (DMSO). 5c(i) (at 5 and 25 mg/kg/day) diluted in vehicle or vehicle alone was administered once daily through intraperitoneal (IP) injections at a volume of 0.6 mL/kg/day. […]
7 weeks after SCI, all post injury cognitive testing was conducted. Novel Object Recognition (NOR): Mice were placed in the empty open field white box for 5 min and recorded. […] Behavioral patterns with respect to the novel and familiar objects was recorded and analyzed. […]

C-DIRG-C BODIPY® (fluorescent dye) [5c(i)]
GSK-3β expression (GSK-3β): reduction | binding and biological activity in cells lacking TrkB/TrkC receptors [1]: lack of binding and biological activity | latency to visit novel object [2]: reduced latency to visit | preference for the novel object [2]: increased preference | visits to novel object [2]: more visits

— patent US20260042801A1, “COMPOSITIONS AND METHODS FOR DYE-BOUND CYCLIZED PEPTIDES FOR MEDICAL USE” (The Texas A&M University System, priority 2022, published 2026)
